The text below walks through data of patent US4874844A, “Tripeptide with immunostimulating activity” (Ellem Industria Farmaceutica S.p.A., priority 1986, dated 1989).

The structures appear in SMILES notation. Peptide text beside a SMILES is read from it.

The format of data set [1] is in vitro ADME. An excerpt:
Resistance to the In Vitro Simulated Gastric Ambient The tripeptide is resistant to the in vitro simulated gastric ambient. In this study the gastric simulated juice USP XXI (HCl+pepsin) has been used at 37 C for 5 hrs.

Data set [2] relates to mice. Description: Acute toxicity in mice. Format: in vivo. The settings on record: up to a dose of 1000 mg/Kg i.m.
The subject of a further data set is rats. In words: Acute toxicity in rats. Format: in vivo. The settings on record: up to a dose of 1000 mg/Kg i.m.
The subject of another data set is rabbits. In words: Tolerability in rabbits. Format: in vivo. To be noted: 100 mg/Kg i.v.
In data set [3] the test system is mice. In words: Tolerability in mice. Format: in vivo. The settings on record: 100 mg/Kg i.p.
Data set [4] is described as follows: Pentobarbital-induced sleeping time. Format: in vivo. To be noted: 100 mg/Kg.
Another data set concerns guinea-pig. To be noted: in vivo, 100 mg/kg.

With `N=C(N)NCCC[C@H](N)C(=O)N[C@@H](CCCCN)C(=O)N[C@@H](CCC(=O)O)C(=O)O` [ELS1, Arg-Lys-Glu] (H-Arg-Lys-Glu-OH), in data set [1], the “resistance to the in vitro simulated gastric ambient” value is given as “resistant”. Moreover, the acute toxicity result in the data set with mice [2] and with rats was “totally devoid of toxic effects” in each case. For the same molecule, the “tolerability: hemodynamic modification and behavioral effect” value in the data set with rabbits is “doesn't cause any hemodynamic modification and behavioral effect”; in the data set on mice [3] it was “doesn't cause any hemodynamic modification and behavioral effect”. Moreover, the pentobarbital-induced sleeping time result in data set [4] is listed as “only a slight increase”. The sensitization phenomena entry in the data set on guinea-pig is recorded as “doesn't induce any sensitization phenomena”.
